{
  "source": "patent US8703779B2",
  "about": "“Preparation of crystalline forms of dihydropyrazolopyrimidinone” (Merck Sharp & Dohme Corp., priority 2009, dated 2014)",
  "key": {"[1]": {"experiment": "relative thermodynamic stability of crystalline forms", "format": "physicochemical", "procedure": "The novel crystalline forms of Compound A or a salt thereof, especially the hemihydrates described herein, can be provided stably and constantly from the standpoint of the manufacturing process, and are useful in the treatment of cancer. […] The relative stability of the hemihydrates and monohydrate Form G at relative humidity higher than 93% has been difficult to establish, because the solubility of the three crystalline forms are very close (difference <1 mg/mL) and the conversion is very slow."}, "Weel kinase": {"target": "Weel kinase (Homo sapiens, UniProt P30291)", "sequence (P30291 whole entry)": "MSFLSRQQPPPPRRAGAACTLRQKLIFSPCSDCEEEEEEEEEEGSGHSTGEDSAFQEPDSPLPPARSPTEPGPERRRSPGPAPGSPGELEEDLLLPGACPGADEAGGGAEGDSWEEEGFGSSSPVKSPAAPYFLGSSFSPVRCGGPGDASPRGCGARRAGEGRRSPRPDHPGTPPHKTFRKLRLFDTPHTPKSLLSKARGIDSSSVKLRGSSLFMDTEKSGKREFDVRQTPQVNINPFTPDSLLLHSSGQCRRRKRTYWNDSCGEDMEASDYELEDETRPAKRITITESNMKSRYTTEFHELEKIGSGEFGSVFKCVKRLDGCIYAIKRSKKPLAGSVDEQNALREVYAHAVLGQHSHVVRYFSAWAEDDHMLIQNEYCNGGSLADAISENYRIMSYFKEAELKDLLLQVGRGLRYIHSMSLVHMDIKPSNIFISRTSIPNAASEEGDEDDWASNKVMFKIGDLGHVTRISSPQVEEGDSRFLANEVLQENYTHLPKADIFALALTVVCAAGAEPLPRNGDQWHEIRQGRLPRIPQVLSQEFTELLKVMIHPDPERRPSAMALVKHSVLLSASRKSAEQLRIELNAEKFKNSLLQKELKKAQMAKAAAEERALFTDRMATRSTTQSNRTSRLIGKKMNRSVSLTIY", "conditions": "cited from earlier work"}},
  "data": [
    {"smiles": "C=CCn1c(=O)c2cnc(Nc3ccc(N4CCN(C)CC4)cc3)nc2n1-c1cccc(C(C)(C)O)n1", "note": "[crystalline hemihydrate form II, 2-allyl-1-[6-(1-hydroxy-1-methylethyl)pyridin-2-yl]-6-{[4-(4-methylpiperazin-1-yl)phenyl]amino}-1,2-dihydro-3H-pyrazolo[3,4-d]pyrimidin-3-one]", "values": [
      {"measurement": "thermodynamic stability relative to other known forms", "setting": "[1]; temperatures equal or higher than 48° C. and relative humidity range of 19-93%", "value": "more stable thermodynamically than other known forms"}
    ]},
    {"smiles": "C=CCn1c(=O)c2cnc(Nc3ccc(N4CCN(C)CC4)cc3)nc2n1-c1cccc(C(C)(C)O)n1", "note": "[crystalline hemihydrate form I, 2-allyl-1-[6-(1-hydroxy-1-methylethyl)pyridin-2-yl]-6-{[4-(4-methylpiperazin-1-yl)phenyl]amino}-1,2-dihydro-3H-pyrazolo[3,4-d]pyrimidin-3-one]", "values": [
      {"measurement": "thermodynamic stability relative to other known forms", "setting": "[1]; temperatures up to 44° C. and relative humidity range of 14-93%", "value": "more stable thermodynamically than other known forms"}
    ]},
    {"smiles": "C=CCn1c(=O)c2cnc(Nc3ccc(N4CCN(C)CC4)cc3)nc2n1-c1cccc(C(C)(C)O)n1", "note": "[Compound A, 2-allyl-1-[6-(1-hydroxy-1-methylethyl)pyridin-2-yl]-6-{[4-(4-methylpiperazin-1-yl)phenyl]amino}-1,2-dihydro-3H-pyrazolo[3,4-d]pyrimidin-3-one]", "values": [
      {"measurement": "Weel kinase inhibitory effect", "setting": "Weel kinase", "value": "excellent Weel kinase inhibitory effect"}
    ]}
  ]
}
